Results published in patent publication US20250049970A1, “DLL3 TARGETING PEPTIDES AND CONSTRUCTS THEREOF” (MARIANA ONCOLOGY INC., priority 2023, published 2025).
*1 amine or outer side, *2 acyl side, *3 side chain or, on linkers, in order; H or OH if unused. Where a SMILES comes first, the peptide text is derived from it. Bridges are numbered along the chain shown (N, C = ends). [ ]: non-standard residue; d: D form. The star is where a group is joined. X9 = CSCC[C@H](NC(=O)c1ccc(CNC(=O)CN2CCN(CC(=O)O)CCN(CC(=O)O)CCN(CC(=O)O)CC2)cc1)C(=O)N[C@H](C(=O)N[C@@H](CCCCN*)C(=O)O)C(C)C; X7 = O=C(O)CN1CCN(CC(=O)O)CCN(CC(=O)N[C@H]2CC[C@H](CC(=O)*)CC2)CCN(CC(=O)O)CC1; Ala(piperidin-4-yl) = O=C([C@H](CC1CCN([*:3])CC1)N[*:1])[*:2]; Ala(morpholin-4-yl) = N[C@@H](CN1CCOCC1)C(=O)O; NMeW = CN[C@@H](Cc1c[nH]c2ccccc12)C(=O)O; 2Nal = N[C@@H](Cc1ccc2ccccc2c1)C(=O)O; Gly(4-THP) = N[C@H](C(=O)O)C1CCOCC1; NMeT = CN[C@H](C(=O)O)[C@@H](C)O; Cha = N[C@@H](CC1CCCCC1)C(=O)O; NMeN = CN[C@@H](CC(N)=O)C(=O)O; Cba = N[C@@H](CC1CCC1)C(=O)O; Chg = N[C@H](C(=O)O)C1CCCCC1; Tle = CC(C)(C)[C@H](N)C(=O)O; Nle = CCCC[C@H](N)C(=O)O; CH2 = C([*:1])[*:2]

Biological target: T1, DLL3 (Homo sapiens, UniProt Q9NYJ7)
T1 sequence (Q9NYJ7 27-618): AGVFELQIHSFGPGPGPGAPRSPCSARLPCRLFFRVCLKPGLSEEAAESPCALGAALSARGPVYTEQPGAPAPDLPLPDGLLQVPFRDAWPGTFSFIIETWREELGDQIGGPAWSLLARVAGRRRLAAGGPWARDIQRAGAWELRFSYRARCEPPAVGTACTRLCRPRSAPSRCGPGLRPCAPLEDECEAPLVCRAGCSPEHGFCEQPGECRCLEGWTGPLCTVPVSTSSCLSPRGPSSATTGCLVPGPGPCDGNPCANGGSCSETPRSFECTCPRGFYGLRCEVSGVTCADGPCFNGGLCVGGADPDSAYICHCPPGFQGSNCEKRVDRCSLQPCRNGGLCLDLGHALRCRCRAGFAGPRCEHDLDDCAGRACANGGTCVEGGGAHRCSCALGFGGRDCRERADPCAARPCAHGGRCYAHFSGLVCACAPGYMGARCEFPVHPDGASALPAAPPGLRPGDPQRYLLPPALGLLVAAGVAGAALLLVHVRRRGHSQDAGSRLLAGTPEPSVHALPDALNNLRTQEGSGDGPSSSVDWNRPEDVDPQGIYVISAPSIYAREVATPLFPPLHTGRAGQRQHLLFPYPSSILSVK
Assay: SPR KD, biotinylated human DLL3 on streptavidin chip (Table 8)
Parameters: biotin (biotinylated)
Conditions: biotinylated human DLL3 on streptavidin sensor chip, 25° C., 1:1 binding model; read-out: SPR KD
Source text: Biotinylated target ligand human DLL3 was immobilized on a streptavidin sensor chip. A reference surface was set up for nonspecific binding and refractive index changes. […] Sensorgram curves were fitted with 1:1 binding model, and affinity and kinetic parameters were obtained using Biacore Insight evaluation 4.0. software.

CC(=O)N[C@@H](Cc1c[nH]c2ccccc12)C(=O)N[C@H](C(=O)N[C@H](C(=O)N[C@H]1CSSC[C@@H](C(=O)N[C@@H](Cc2c[nH]c3ccccc23)C(=O)N2CCC[C@H]2C(N)=O)NC(=O)[C@H](CC(=O)O)NC(=O)[C@H](Cc2cnc[nH]2)NC(=O)[C@H](Cc2c[nH]c3ccccc23)NC(=O)[C@H](CC(N)=O)NC(=O)[C@H](CC(N)=O)NC1=O)C1CCOCC1)[C@@H](C)O [compound 338, Ac-W-T-(THPG)-C(3)-N-N-W-H-D-C(3)-W-P-CONH2] (Ac-WT[Gly(4-THP)]CNNWHDCWP-NH2; disulfide 4-10)
Kd: 0.001 to 0.01 µM

CCCC[C@H](NC(=O)[C@@H](NC(=O)[C@H](Cc1c[nH]c2ccccc12)NC(C)=O)[C@@H](C)O)C(=O)N[C@H]1CSSC[C@@H](C(=O)N[C@@H](Cc2c[nH]c3ccccc23)C(=O)N2CCC[C@H]2C(N)=O)NC(=O)[C@H](CC(=O)O)NC(=O)[C@H](Cc2cnc[nH]2)NC(=O)[C@H](Cc2c[nH]c3ccccc23)NC(=O)[C@H](CC(N)=O)NC(=O)[C@H](CC(N)=O)NC1=O [compound 339, Ac-W-T-(Nle)-C(3)-N-N-W-H-D-C(3)-W-P-CONH2] (Ac-WT[Nle]CNNWHDCWP-NH2; disulfide 4-10)
Kd: 0.001 to 0.01 µM

CC(=O)N[C@@H](Cc1c[nH]c2ccccc12)C(=O)N[C@H](C(=O)N[C@@H](CC1CCCCC1)C(=O)N[C@H]1CSSC[C@@H](C(=O)N[C@@H](Cc2c[nH]c3ccccc23)C(=O)N2CCC[C@H]2C(N)=O)NC(=O)[C@H](CC(=O)O)NC(=O)[C@H](Cc2cnc[nH]2)NC(=O)[C@H](Cc2c[nH]c3ccccc23)NC(=O)[C@H](CC(N)=O)NC(=O)[C@H](CC(N)=O)NC1=O)[C@@H](C)O [compound 340, Ac-W-T-(CHA)-C(3)-N-N-W-H-D-C(3)-W-P-CONH2] (Ac-WT[Cha]CNNWHDCWP-NH2; disulfide 4-10)
Kd: 0.001 to 0.01 µM

CC(=O)N[C@@H](Cc1c[nH]c2ccccc12)C(=O)N[C@H](C(=O)N[C@@H](CC1CCC1)C(=O)N[C@H]1CSSC[C@@H](C(=O)N[C@@H](Cc2c[nH]c3ccccc23)C(=O)N2CCC[C@H]2C(N)=O)NC(=O)[C@H](CC(=O)O)NC(=O)[C@H](Cc2cnc[nH]2)NC(=O)[C@H](Cc2c[nH]c3ccccc23)NC(=O)[C@H](CC(N)=O)NC(=O)[C@H](CC(N)=O)NC1=O)[C@@H](C)O [compound 341, Ac-W-T-(CBA)-C(3)-N-N-W-H-D-C(3)-W-P-CONH2] (Ac-WT[Cba]CNNWHDCWP-NH2; disulfide 4-10)
Kd: 0.001 to 0.01 µM

CC[C@H](C)[C@H](NC(=O)[C@@H](NC(=O)[C@H](Cc1c[nH]c2ccccc12)NC(C)=O)[C@@H](C)O)C(=O)N[C@H]1CSCSC[C@@H](C(=O)N[C@@H](Cc2c[nH]c3ccccc23)C(=O)N2CCC[C@H]2C(N)=O)NC(=O)[C@H](CC(=O)O)NC(=O)[C@H](Cc2cnc[nH]2)NC(=O)[C@H](Cc2c[nH]c3ccccc23)NC(=O)[C@H](CC(N)=O)NC(=O)[C@H](CC(N)=O)NC1=O [compound 343] (Ac-WTICNNWHDCWP-NH2; linker 4-10 via CH2)
Kd: 0.01 to 0.1 µM

CSCC[C@H](NC(=O)c1ccc(CNC(=O)CN2CCN(CC(=O)O)CCN(CC(=O)O)CCN(CC(=O)O)CC2)cc1)C(=O)N[C@H](C(=O)N[C@@H](CCCCNC(=O)CC[C@@H]1NC(=O)[C@H](Cc2ccc3ccccc3c2)NC(=O)[C@H](CC(N)=O)NC(=O)[C@H](CC2CCNCC2)NC(=O)[C@@H](NC(=O)[C@@H](NC(=O)[C@@H](NC(=O)[C@H](Cc2c[nH]c3ccccc23)NC(C)=O)[C@@H](C)O)C(C)(C)C)CSSC[C@@H](C(=O)N[C@@H](Cc2c[nH]c3ccccc23)C(=O)N2CCC[C@H]2C(N)=O)NC(=O)[C@H](CC(=O)O)NC1=O)C(=O)O)C(C)C [compound 377] (Ac-WT[Tle]C[Ala(piperidin-4-yl)]N[2Nal]E(X9)DCWP-NH2; disulfide 4-10)
Kd: 0.001 to 0.01 µM

CSCC[C@H](NC(=O)c1ccc(CNC(=O)CN2CCN(CC(=O)O)CCN(CC(=O)O)CCN(CC(=O)O)CC2)cc1)C(=O)N[C@H](C(=O)N[C@@H](CCCCNC(=O)CC[C@@H]1NC(=O)[C@H](Cc2ccc3ccccc3c2)NC(=O)[C@H](CC(N)=O)NC(=O)[C@H](CC2CCNCC2)NC(=O)[C@@H](NC(=O)[C@@H](NC(=O)[C@@H](NC(=O)[C@H](Cc2c[nH]c3ccccc23)NC(C)=O)[C@@H](C)O)C2CCOCC2)CSSC[C@@H](C(=O)N[C@@H](Cc2c[nH]c3ccccc23)C(=O)N2CCC[C@H]2C(N)=O)NC(=O)[C@H](CC(=O)O)NC1=O)C(=O)O)C(C)C [compound 378, Ac-W-T-(THPG)-C(3)-[3-(4-piperidinyl)-Ala]-N-(2Nal)-[Glu(gLys(OH)-Val-Met-AmBz-DOTA)]-D-C(3)-W-P-CONH2] (Ac-WT[Gly(4-THP)]C[Ala(piperidin-4-yl)]N[2Nal]E(X9)DCWP-NH2; disulfide 4-10)
Kd: 0.001 to 0.01 µM

CC(=O)N[C@@H](Cc1c[nH]c2ccccc12)C(=O)N[C@H](C(=O)N[C@H](C(=O)N[C@H]1CSSC[C@@H](C(=O)N[C@@H](Cc2c[nH]c3ccccc23)C(=O)N2CCC[C@H]2C(N)=O)NC(=O)[C@H](CC(=O)O)NC(=O)[C@H](CCCCNC(=O)C[C@H]2CC[C@H](NC(=O)CN3CCN(CC(=O)O)CCN(CC(=O)O)CCN(CC(=O)O)CC3)CC2)NC(=O)[C@H](Cc2ccc3ccccc3c2)NC(=O)[C@H](CC(N)=O)NC(=O)[C@H](CC2CCNCC2)NC1=O)C1CCCCC1)[C@@H](C)O [compound 379, Ac-W-T-(Chg)-C(3)-[3-(4-piperidinyl)-Ala]-N-(2Nal)-Lys(Chx-DOTA)-D-C(3)-W-P-CONH2] (Ac-WT[Chg]C[Ala(piperidin-4-yl)]N[2Nal]K(X7)DCWP-NH2; disulfide 4-10)
Kd: < 0.001 µM

CC(=O)N[C@@H](Cc1c[nH]c2ccccc12)C(=O)N[C@H](C(=O)N[C@H](C(=O)N[C@H]1CSSC[C@@H](C(=O)N[C@@H](Cc2c[nH]c3ccccc23)C(=O)N2CCC[C@H]2C(N)=O)NC(=O)[C@H](CC(=O)O)NC(=O)[C@H](CCCCNC(=O)C[C@H]2CC[C@H](NC(=O)CN3CCN(CC(=O)O)CCN(CC(=O)O)CCN(CC(=O)O)CC3)CC2)NC(=O)[C@H](Cc2ccc3ccccc3c2)NC(=O)[C@H](CC(N)=O)NC(=O)[C@H](CN2CCOCC2)NC1=O)C1CCCCC1)[C@@H](C)O [compound 380, Ac-W-T-(Chg)-C(3)-[3-(1-morpholinyl)-Ala]-N-(2Nal)-Lys(Chx-DOTA)-D-C(3)-W-P-CONH2] (Ac-WT[Chg]C[Ala(morpholin-4-yl)]N[2Nal]K(X7)DCWP-NH2; disulfide 4-10)
Kd: < 0.001 µM

CSCC[C@H](NC(=O)c1ccc(CNC(=O)CN2CCN(CC(=O)O)CCN(CC(=O)O)CCN(CC(=O)O)CC2)cc1)C(=O)N[C@H](C(=O)N[C@@H](CCCCNC(=O)CC[C@@H]1NC(=O)[C@H](Cc2ccc3ccccc3c2)NC(=O)[C@H](CC(N)=O)NC(=O)[C@H](CC2CCNCC2)NC(=O)[C@@H](NC(=O)[C@@H](NC(=O)[C@@H](NC(=O)[C@H](Cc2c[nH]c3ccccc23)NC(C)=O)[C@@H](C)O)C2CCCCC2)CSSC[C@@H](C(=O)N[C@@H](Cc2c[nH]c3ccccc23)C(=O)N2CCC[C@H]2C(N)=O)NC(=O)[C@H](CC(=O)O)NC1=O)C(=O)O)C(C)C [compound 381, Ac-W-T-(Chg)-C(3)-[3-(4-piperidinyl)-Ala]-N-(2Nal)-[Glu(gLys(OH)-Val-Met-AmBz-DOTA)]-D-C(3)-W-P-CONH2] (Ac-WT[Chg]C[Ala(piperidin-4-yl)]N[2Nal]E(X9)DCWP-NH2; disulfide 4-10)
Kd: < 0.001 µM

CC[C@H](C)[C@H](NC(=O)[C@@H](NC(=O)[C@H](Cc1c[nH]c2ccccc12)N(C)C(C)=O)[C@@H](C)O)C(=O)N[C@H]1CSSC[C@@H](C(=O)N[C@@H](Cc2c[nH]c3ccccc23)C(=O)N2CCC[C@H]2C(=O)O)NC(=O)[C@H](CC(=O)O)NC(=O)[C@H](Cc2c[nH]cn2)NC(=O)[C@H](Cc2c[nH]c3ccccc23)NC(=O)[C@H](CC(N)=O)NC(=O)[C@H](CC(N)=O)NC1=O [compound 382, Ac-(NmeW)-T-I-C(3)-N-N-W-H-D-C(3)-W-P-CONH2] (Ac-[NMeW]TICNNWHDCWP-OH; disulfide 4-10)
Kd: 0.01 to 0.1 µM

CC[C@H](C)[C@H](NC(=O)[C@H]([C@@H](C)O)N(C)C(=O)[C@H](Cc1c[nH]c2ccccc12)NC(C)=O)C(=O)N[C@H]1CSSC[C@@H](C(=O)N[C@@H](Cc2c[nH]c3ccccc23)C(=O)N2CCC[C@H]2C(N)=O)NC(=O)[C@H](CC(=O)O)NC(=O)[C@H](Cc2cnc[nH]2)NC(=O)[C@H](Cc2c[nH]c3ccccc23)NC(=O)[C@H](CC(N)=O)NC(=O)[C@H](CC(N)=O)NC1=O [compound 383, Ac-W-(NmeT)-I-C(3)-N-N-W-H-D-C(3)-W-P-CONH2] (Ac-W[NMeT]ICNNWHDCWP-NH2; disulfide 4-10)
Kd: 0.1 to 0.3 µM

CC[C@H](C)[C@H](NC(=O)[C@@H](NC(=O)[C@H](Cc1c[nH]c2ccccc12)NC(C)=O)[C@@H](C)O)C(=O)N[C@H]1CSSC[C@@H](C(=O)N[C@@H](Cc2c[nH]c3ccccc23)C(=O)N2CCC[C@H]2C(=O)O)NC(=O)[C@H](CC(=O)O)NC(=O)[C@H](Cc2c[nH]cn2)NC(=O)[C@H](Cc2c[nH]c3ccccc23)NC(=O)[C@H](CC(=O)O)NC(=O)[C@H](CC(N)=O)N(C)C1=O [compound 384, Ac-W-T-I-C(3)-(NmeN)-N-W-H-D-C(3)-W-P-CONH2] (Ac-WTIC[NMeN]DWHDCWP-OH; disulfide 4-10)
Kd: 0.01 to 0.1 µM
